Here are results for 6 compounds from patent US11787805B2, “N-oxide inhibitors of NLRP3 inflammasome” (BioAge Labs, Inc., priority 2022, dated 2023).

The data set can be described thus: Human Liver Microsome Stability Assay (HLM). The data set is classed as in vitro ADME. Conditions: for half-life: human, liver microsomes, read-out: HLM t1/2. An excerpt:
The stability of the N-oxide compounds provided herein was studied compared to analogs not having N-oxide. […] This enhanced metabolic stability corresponds to an extended half-life and duration of action when dosed in vivo.
On the technique in general: Liver microsomes are vesicles of endoplasmic reticulum, rich in cytochrome P450 enzymes.

Consider `CCOc1cc(C(=O)N(C)Cc2cncc3cn[nH]c23)ccc1-c1cccc(F)c1` [B], for which the half-life was 2 min. Consider `CN(Cc1cccc2cn[nH]c12)C(=O)c1ccc(-c2cccc(F)c2)c(OC2CC2)c1` [D], for which the half-life is 1.5 min.

On to `CN(Cc1cncc2cn[nH]c12)C(=O)c1ccc(-c2cccc(F)c2)c(OC2CC2)c1` [C], for which the half-life came to 4 min. The same measure, in the same setting: with `CN(Cc1c[n+]([O-])cc2cn[nH]c12)C(=O)c1ccc(-c2cccc(F)c2)c(OC2CC2)c1` [Compound 004] the figure was > 145 min. Consider `CCOc1cc(C(=O)N(C)Cc2cncc3cn[nH]c23)ccc1-c1cccc(F)c1` [A], for which the “HLM t1/2” value (human liver microsomes) amounted to 3.7 min. In the case of `CCOc1cc(C(=O)N(C)Cc2c[n+]([O-])cc3cn[nH]c23)ccc1-c1cccc(F)c1` [Compound 001], the half-life is > 145 min.
